These results are taken from patent US20110245283A1, “Methods for predicting the response to statins” (priority 2009, published 2011).

Like-named read-outs stand apart in the source and are kept apart here.

Data set [1] has as its system LDL. Briefly: Logistic regression models of attaining LDL goal: odds ratios for concurrent or prior drug doses. Type of data set: in vivo, patients. To be noted: for OR: per dose increment. How it is done: G. Covariates for the multivariate model—The following list includes the predictors one or more of which may be tested in the multivariate models. • 1. AGE: (expressed in units of 10 years) at time that the new statin prescription was released • 2. GENDER, E. G., MALE: 1=yes, 0=no • 3. BMI (kg/M^2): last value before release date • 4. HBA1C (hemoglobin Alc): last value before release date • 5. PLDL: preceding LDL level expressed in e.g. 10 mg/dl units • 6. Statins • a. PLOVA: prior daily dose of lovastatin expressed in e.g. 10 mg units • b. […] For additional drugs: • a. AMIODOSE: amiodarone dose in mg/day • b. CARBDOSE: carbemazepine dose in mg/day • c. PIOGDOSE: pioglitazone dose expressed as number of 15 mg doses per day • d. […] METFDOSE: metformin dose expressed as number of 1000 mg doses per day • f. PHENDOSE: phenyloin dose in mg/day • g. RISPDOSE: risperidone dose in mg/day • h. ROSIDOSE: rosiglitazone dose in mg/day • i.
Body mass index (BMI) was chosen as a covariate of statin response because obese patients tend to consume a diet high in cholesterol. It was hypothesized that they would respond less well to statins because their hypercholesterolemia was more likely to be mediated by dietary indiscretion than excessive LDL synthesis. […] Metformin and the thiazolidinediones were chosen because they reduce LDL levels in diabetic patients through mechanisms that may or may not be affected by concurrent statin treatment. The remaining non-statin drugs were chosen because they are commonly used drugs that potentiate the effect of statins. They were selected by reviewing the official on-line VA pharmaceutical reference (Micromedex®) for major interactions mediated by impaired statin metabolism. […] The daily dose of the non-statin drug was calculated by the method described in Section B.
H. Assembling the predictor file—The patient identifier was used to link the new statin prescription type and dose, the preceding LDL above goal, and the type and dose of the previous statin (if any) with the patient's most recent HbA1c, most recent BMI, and the daily doses of 9 drugs with major statin interactions that were active at the time the new prescription was released.
The dependent variable was attainment of goal (LDL <100 mg/dl). […] Step selections were based upon the maximal likelihood method with α<0.15 to enter and ≧0.15 to remove.

The conditions of data set [2]: cited from earlier work.
Setting [3] is: odds of goal LDL <100 mg/dl, Lovastatin 20 mg [A] model (includes HbA1c; n = 595).
The mark [4] stands for this setting: odds of goal, Lovastatin 20 mg [B] model (excludes HbA1c; n = 733).
Where [5] appears, read: odds of goal, Lovastatin 40 mg model (n = 764).
[6] abbreviates: odds of goal, Simvastatin 10 mg [A] model (no previous treatment; n = 172).
[7] abbreviates: odds of goal, Simvastatin 10 mg [C] model (excludes BMI; n = 219).
The mark [8] stands for this setting: odds of goal, Simvastatin 40 mg model (n = 698).

As to `COc1ccc([C@@H]2Sc3ccccc3N(CCN(C)C)C(=O)[C@@H]2OC(C)=O)cc1` [Diltiazem, diltiazem], in data set [1] (for every 120 mg per day diltiazem, lovastatin 20 mg model), the “Increase of odds of reaching goal” value is recorded as 70%. In addition, the OR in data set [1] (setting [3]) was 1.44; in data set [1] (setting [4]), 1.69; in data set [1] (setting [5]), 1.35; in data set [1] (setting [6]), 1.78; in data set [1] (setting [7]), 1.76; in data set [1] (setting [8]), 1.70.

For the compound `CN(C)C(=N)N=C(N)N` [Metformin, metformin], in data set [1] (for every 1,000 mg daily, 2 models), the “Odds ratio for concurrent treatment” value is on record as 1.3. Moreover, the OR came to 1.30 in data set [1] (setting [3]); 1.26 in data set [1] (setting [4]); 1.22 in data set [1] (setting [5]); 1.84 in data set [1] (setting [6]); 1.98 in data set [1] (setting [7]); 1.31 in data set [1] (setting [8]). In data set [1] (patient taking metformin, simvastatin 40 mg model), the “Increase of odds of reaching goal” value is given as 30%.

Take `Cc1c(O)cccc1C(=O)N[C@@H](CSc1ccccc1)[C@H](O)CN1C[C@H]2CCCC[C@H]2C[C@H]1C(=O)NC(C)(C)C` [Nelfinavir]: the “Increased risk of toxicity or reduced statin effectiveness” value in data set [2] (with Atorva), in data set [2] (with Lova) and in data set [2] (with Simva) was “(+)” each time. Also, the “Severity of the interaction” value in data set [2] (with Atorva), in data set [2] (with Lova) and in data set [2] (with Simva) was 3 in each case.

On to `O=C(O)c1cccnc1` [Niacin], for which the “Increased risk of toxicity or reduced statin effectiveness” value in data set [2] (with Atorva), in data set [2] (with Fluva), in data set [2] (with Lova), in data set [2] (with Prava), in data set [2] (with Rosuva) and in data set [2] (with Simva) was “(+)” throughout. The “Severity of the interaction” value in data set [2] (with Atorva) is reported as 3; in data set [2] (with Fluva), 2; in data set [2] (with Lova), 3; in data set [2] (with Prava) it was 2; in data set [2] (with Rosuva), 3; in data set [2] (with Simva), 3.

For the compound `COc1ccc2[nH]c([S+]([O-])Cc3ncc(C)c(OC)c3C)nc2c1` (centres unmarked) [Omeprazole], in data set [2] (with Fluva), the “Increased risk of toxicity or reduced statin effectiveness” value is recorded as “(+)” and the “Severity of the interaction” value was 1.

On to `O=C1NC(=O)C(c2ccccc2)(c2ccccc2)N1` [Phenytoin], for which the “Severity of the interaction” value in data set [2] (with Atorva), in data set [2] (with Fluva) and in data set [2] (with Simva) was 2 in each case. The “Increased risk of toxicity or reduced statin effectiveness” value in data set [2] (with Fluva) is “(+)”.

Turning to `CCc1ccc(CCOc2ccc(CC3SC(=O)NC3=O)cc2)nc1` (centres unmarked) [Pioglitazone, pioglitazone], the OR in data set [1] (setting [4]) was 2.06.

For the compound `CO[C@H]1/C=C/O[C@@]2(C)Oc3c(C)c(O)c4c(O)c(c(/C=N/N5CCN(C)CC5)c(O)c4c3C2=O)NC(=O)/C(C)=C\C=C\[C@H](C)[C@H](O)[C@@H](C)[C@@H](O)[C@@H](C)[C@H](OC(C)=O)[C@@H]1C` [Rifampin], the results for the “Severity of the interaction” value in data set [2] (with Fluva) and in data set [2] (with Simva) were 1 and 2, respectively.

As for `Cc1nc2n(c(=O)c1CCN1CCC(c3noc4cc(F)ccc34)CC1)CCCC2` [Risperidone], in data set [2] (with Simva), the “Increased risk of toxicity or reduced statin effectiveness” value is given as “(+)” and the “Severity of the interaction” value is 3.

Take `CC(C)c1nc(CN(C)C(=O)N[C@H](C(=O)N[C@@H](Cc2ccccc2)C[C@H](O)[C@H](Cc2ccccc2)NC(=O)OCc2cncs2)C(C)C)cs1` [Rotinavir]: the “Increased risk of toxicity or reduced statin effectiveness” value in data set [2] (with Atorva), in data set [2] (with Lova) and in data set [2] (with Simva) was “(+)” each time. The “Severity of the interaction” value in data set [2] (with Atorva) was 2; in data set [2] (with Lova), 3; in data set [2] (with Simva), 3.

As to `CC(C)(C)NC(=O)[C@@H]1C[C@@H]2CCCC[C@@H]2CN1C[C@@H](O)[C@H](Cc1ccccc1)NC(=O)[C@H](CC(N)=O)NC(=O)c1ccc2ccccc2n1` [Saquinavir], the “Increased risk of toxicity or reduced statin effectiveness” value in data set [2] (with Atorva), in data set [2] (with Lova) and in data set [2] (with Simva) was “(+)” each time.

Consider `CC[C@H]1OC(=O)[C@H](C)C(=O)[C@H](C)[C@@H](O[C@@H]2O[C@H](C)C[C@H](N(C)C)[C@H]2O)[C@](C)(OC)C[C@@H](C)C(=O)[C@H](C)[C@H]2N(CCCCn3cnc(-c4cccnc4)c3)C(=O)O[C@]12C` [Telithromycin], for which the “Increased risk of toxicity or reduced statin effectiveness” value in data set [2] (with Atorva), in data set [2] (with Lova) and in data set [2] (with Simva) was “(+)” in each case. In addition, the “Severity of the interaction” value in data set [2] (with Atorva), in data set [2] (with Lova) and in data set [2] (with Simva) was 3 each time.

Turning to `CCC[C@@]1(CCc2ccccc2)CC(O)=C([C@H](CC)c2cccc(NS(=O)(=O)c3ccc(C(F)(F)F)cn3)c2)C(=O)O1` [Tipranavir], in data set [2] (with Lova), the “Increased risk of toxicity or reduced statin effectiveness” value is “(+)” and the “Severity of the interaction” value was 3. In data set [2] (with Simva), the “Increased risk of toxicity or reduced statin effectiveness” value is reported as “(+)” and the “Severity of the interaction” value is given as 3.

On to `Cc1c(C)c2c(c(C)c1O)CCC(C)(COc1ccc(CC3SC(=O)NC3=O)cc1)O2` (centres unmarked) [Troglitazone], for which the “Severity of the interaction” value in data set [2] (with Simva) was 1.

Turning to Cholestyramine, the “Severity of the interaction” value in data set [2] (with Fluva) was 1; in data set [2] (with Prava) it was 2.

Regarding Colestipol, the “Severity of the interaction” value in data set [2] (with Prava) is on record as 2.

As for Magaldrate, the “Severity of the interaction” value in data set [2] (with Rosuva) was 2.

For the compound Pectin, the “Severity of the interaction” value in data set [2] (with Atorva), in data set [2] (with Fluva), in data set [2] (with Lova), in data set [2] (with Prava), in data set [2] (with Rosuva) and in data set [2] (with Simva) was 2 throughout.
